This is an account of results in paper PMC5308240, “A Novel Toxin from Haplopelma lividum Selectively Inhibits the NaV1.8 Channel and Possesses Potent Analgesic Efficacy” (Toxins, 2016).

For test [1], the system named is mice. The experiment in a line: Tail-flicking test. The settings on record: mouse, in vivo, ip. The method, then:
Mice with pain threshold of 4–6 s were selected for the tail-flicking test. […] A photothermal pain detector (YLS-12A, Jinan, Shandong, China) was used to measure the pain threshold of mice subjected to intense heat and the light beam of the detector was focused on the middle of mouse tail. All of the animals were intraperitoneally injected with saline containing different concentrations of samples and control group received the same volume of saline. Tail withdrawal latency was measured as the time taken to withdraw the tail from the light beam.
(§1) The results are expressed as the mean ± standard error of the mean (SEM). Statistical significance was calculated using one- or two-way analysis of variance followed by the Student-Newman-Keuls and Bonferroni’s post hoc tests. Significance was defined as p < 0.05.

In test [2] the test system is mice. The experiment in a line: Formalin-induced paw licking. The following applies: mouse, in vivo, ip. The method, then:
A formalin test was performed according to the method described by Owoyele et al.. Mice were intraperitoneally (i.p.) injected with test samples dissolved in 100 μL of saline and positive control animals were intraperitoneally injected with morphine dissolved in saline. The control group received the same volume of saline. Animals were injected with 20 μL of 5% formalin at the plantar surface of right hind paw after intraperitoneally injected with test samples. They were then placed into open polyvinyl cages (20 cm × 40 cm × 15 cm) individually. The time spent for licking the injected paw by each mouse was recorded by a digital video camera (early phase or neurogenic pain, 0–15 min post-injection and late phase or inflammatory pain, 15–30 min post-injection).
as §1

In test [3] the test system is mice. Description: Hot plate test. The following applies: mouse, in vivo. On the procedure:
A hot plate apparatus (model HZ66-ZH-YLS-6B, Shanghai, China), maintained at 55 ± 1 °C, was used to test the pain in response to a thermal stimulus. Mice in the control condition showing initial nociceptive responses between 5 and 10 s were selected for the experiment. The latency to the sign of hind paw licking or jumping to avoid heat nociception was taken as the index of the nociceptive threshold. […] A group of mice treated with morphine dissolved in physiological saline was used as a positive control.
as §1
For orientation: In hot-plate and tail-flick tests a longer latency is read as antinociception.

Where “and” joins values, the source holds several entries; their conditions need not be identical. Equal values may be shown once.

For the molecule `CN1CC[C@]23c4c5ccc(O)c4O[C@H]2[C@@H](O)C=C[C@H]3[C@H]1C5` [morphine], the tail withdrawal latency with mice [1] is 6.8 s and 8.9 s and 11.3 s. For the same molecule, in the test with mice [2], the “paw licking time, early phase” value is 94 s and 71 s and 60 s; the “paw licking time, late phase” value is 421 s and 275 s and 211 s. Further, the hot plate latency with mice [3] is 12.5 s and 14.3 s and 18.6 s.
